Experimental data taken from PubChem BioAssay AID1919003 (Molecular Pharmacology Branch, DTP, NCI, 2023).

Test system: 786-0 complex spheroids with HUVEC/MSC, growth % test/control
Test: Anticancer human tumor 786-0 cell line growth inhibition [AhR];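 also: compound exposure lasted seven days before the read-out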
Details: for IC50: curve of first compound; for viability, T/C: stronger effect = lower value
Procedure, shortened: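 Spheroids combined tumor cells with HUVEC endothelial cells and human MSCs as stroma. AhR antagonists were paired with standard or investigational drugs, each dosed in half-log steps down from near clinical Cmax, or from 10 microM where Cmax was unknown.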

[1] = second compound 0.1 µM, first compound 0.00949 µM
[2] = second compound 0.1 µM, first compound 0.03 µM
[3] = second compound 0.1 µM, first compound 0.0949 µM
[4] = second compound 0.1 µM, first compound 0.3 µM
[5] = second compound 0.316 µM, first compound 0.00949 µM
[6] = second compound 0.316 µM, first compound 0.03 µM
[7] = second compound 0.316 µM, first compound 0.0949 µM
[8] = second compound 0.316 µM, first compound 0.3 µM
[9] = second compound 1 µM, first compound 0.00949 µM
[10] = second compound 1 µM, first compound 0.03 µM
[11] = second compound 1 µM, first compound 0.0949 µM
[12] = second compound 1 µM, first compound 0.3 µM
[13] = second compound 3.16 µM, first compound 0.00949 µM
[14] = second compound 3.16 µM, first compound 0.03 µM
[15] = second compound 3.16 µM, first compound 0.0949 µM
[16] = second compound 3.16 µM, first compound 0.3 µM
[17] = second compound 10 µM, first compound 0.00949 µM
[18] = second compound 10 µM, first compound 0.03 µM
[19] = second compound 10 µM, first compound 0.0949 µM
[20] = second compound 10 µM, first compound 0.3 µM

COc1ccc([C@@H](O)c2cc(-c3ncnc4cc(N5CCOCC5)ccc34)c(F)cc2Cl)nn1 + Cc1cncc(-c2nc(NCCc3c[nH]c4ccccc34)c3ncn(C(C)C)c3n2)c1
IC50 (second compound 0.1 µM): > 10000 nM | IC50 (second compound 0.316 µM): > 10000 nM | IC50 (second compound 1 µM): > 10000 nM | IC50 (second compound 3.16 µM): > 10000 nM | IC50 (second compound 10 µM): < 31.6 nM | viability, T/C (second compound 0.1 µM, first compound 0.0316 µM): 103% | viability, T/C (second compound 0.1 µM, first compound 0.1 µM): 111% | viability, T/C (second compound 0.1 µM, first compound 0.316 µM): 111% | viability, T/C (second compound 0.1 µM, first compound 1 µM): 112% | viability, T/C (second compound 0.1 µM, first compound 3.16 µM): 109% | viability, T/C (second compound 0.1 µM, first compound 10 µM): 89.9% | viability, T/C (second compound 0.316 µM, first compound 0.0316 µM): 112% | viability, T/C (second compound 0.316 µM, first compound 0.1 µM): 111% | viability, T/C (second compound 0.316 µM, first compound 0.316 µM): 114% | viability, T/C (second compound 0.316 µM, first compound 1 µM): 120% | viability, T/C (second compound 0.316 µM, first compound 3.16 µM): 103% | viability, T/C (second compound 0.316 µM, first compound 10 µM): 95.4% | viability, T/C (second compound 1 µM, first compound 0.0316 µM): 107% | viability, T/C (second compound 1 µM, first compound 0.1 µM): 103% | viability, T/C (second compound 1 µM, first compound 0.316 µM): 96.4% | viability, T/C (second compound 1 µM, first compound 1 µM): 104% | viability, T/C (second compound 1 µM, first compound 3.16 µM): 103% | viability, T/C (second compound 1 µM, first compound 10 µM): 84.8% | viability, T/C (second compound 3.16 µM, first compound 0.0316 µM): 73% | viability, T/C (second compound 3.16 µM, first compound 0.1 µM): 73.3% | viability, T/C (second compound 3.16 µM, first compound 0.316 µM): 66.4% | viability, T/C (second compound 3.16 µM, first compound 1 µM): 62.7% | viability, T/C (second compound 3.16 µM, first compound 3.16 µM): 61.2% | viability, T/C (second compound 3.16 µM, first compound 10 µM): 61.5% | viability, T/C (second compound 10 µM, first compound 0.0316 µM): 6.44% | viability, T/C (second compound 10 µM, first compound 0.1 µM): 5.3% | viability, T/C (second compound 10 µM, first compound 0.316 µM): 8.33% | viability, T/C (second compound 10 µM, first compound 1 µM): 5.44% | viability, T/C (second compound 10 µM, first compound 3.16 µM): 5.99% | viability, T/C (second compound 10 µM, first compound 10 µM): 9.73%

Nc1ncn(C2CC(O)C(CO)S2)c(=O)n1 (stereo not given) + Cc1cncc(-c2nc(NCCc3c[nH]c4ccccc34)c3ncn(C(C)C)c3n2)c1
IC50 (second compound 0.1 µM): > 300 nM | IC50 (second compound 0.316 µM): > 300 nM | IC50 (second compound 1 µM): > 300 nM | IC50 (second compound 3.16 µM): 22.3 nM | IC50 (second compound 10 µM): < 0.949 nM | viability, T/C (second compound 0.1 µM, first compound 0.000949 µM): 120% | viability, T/C (second compound 0.1 µM, first compound 0.003 µM): 123% | viability, T/C [1]: 122% | viability, T/C [2]: 118% | viability, T/C [3]: 94.2% | viability, T/C [4]: 82.7% | viability, T/C (second compound 0.316 µM, first compound 0.000949 µM): 121% | viability, T/C (second compound 0.316 µM, first compound 0.003 µM): 117% | viability, T/C [5]: 121% | viability, T/C [6]: 110% | viability, T/C [7]: 94.7% | viability, T/C [8]: 79.3% | viability, T/C (second compound 1 µM, first compound 0.000949 µM): 101% | viability, T/C (second compound 1 µM, first compound 0.003 µM): 102% | viability, T/C [9]: 94.3% | viability, T/C [10]: 90.3% | viability, T/C [11]: 61.1% | viability, T/C [12]: 57.6% | viability, T/C (second compound 3.16 µM, first compound 0.000949 µM): 69.2% | viability, T/C (second compound 3.16 µM, first compound 0.003 µM): 65.2% | viability, T/C [13]: 59.8% | viability, T/C [14]: 46.6% | viability, T/C [15]: 40.4% | viability, T/C [16]: 39.9% | viability, T/C (second compound 10 µM, first compound 0.000949 µM): 17.2% | viability, T/C (second compound 10 µM, first compound 0.003 µM): 14.9% | viability, T/C [17]: 22% | viability, T/C [18]: 15.6% | viability, T/C [19]: 10.9% | viability, T/C [20]: 9.94%

O=C(C=Cn1cnc(-c2cc(C(F)(F)F)cc(C(F)(F)F)c2)n1)NNc1cnccn1 + Cc1cncc(-c2nc(NCCc3c[nH]c4ccccc34)c3ncn(C(C)C)c3n2)c1
IC50 (second compound 0.1 µM): 736 nM | IC50 (second compound 0.316 µM): 619 nM | IC50 (second compound 1 µM): 562 nM | IC50 (second compound 3.16 µM): 412 nM | IC50 (second compound 10 µM): < 9.49 nM | viability, T/C [1]: 118% | viability, T/C [2]: 125% | viability, T/C [3]: 134% | viability, T/C [4]: 75.5% | viability, T/C (second compound 0.1 µM, first compound 0.949 µM): 50.2% | viability, T/C (second compound 0.1 µM, first compound 3 µM): 20.5% | viability, T/C [5]: 130% | viability, T/C [6]: 142% | viability, T/C [7]: 151% | viability, T/C [8]: 76% | viability, T/C (second compound 0.316 µM, first compound 0.949 µM): 49.4% | viability, T/C (second compound 0.316 µM, first compound 3 µM): 19.9% | viability, T/C [9]: 127% | viability, T/C [10]: 131% | viability, T/C [11]: 129% | viability, T/C [12]: 67.5% | viability, T/C (second compound 1 µM, first compound 0.949 µM): 44.9% | viability, T/C (second compound 1 µM, first compound 3 µM): 19.9% | viability, T/C [13]: 116% | viability, T/C [14]: 146% | viability, T/C [15]: 131% | viability, T/C [16]: 57.6% | viability, T/C (second compound 3.16 µM, first compound 0.949 µM): 37.6% | viability, T/C (second compound 3.16 µM, first compound 3 µM): 21.9% | viability, T/C [17]: 12.7% | viability, T/C [18]: 18.3% | viability, T/C [19]: 11.7% | viability, T/C [20]: 4.08% | viability, T/C (second compound 10 µM, first compound 0.949 µM): 5.46% | viability, T/C (second compound 10 µM, first compound 3 µM): 4.69%
